Experimental data: article PMC10376326, “Novel Acylselenourea Derivatives: Dual Molecules with Anticancer and Radical Scavenging Activity” (Antioxidants, 2023)

system: MDA-MB-231 (breast) cancer cell line; test: MTT cell viability assay, MDA-MB-231; format: cell-based, human; conditions: Homo sapiens, MDA-MB-231, 48 h, read-out: Cell growth %, MDA-MB-231, 10 µM, 48 h, MTT
Procedure: (§1) Cell lines were purchased from the American Type Culture Collection (ATCC). Cell lines MDA-MB-231, HTB-54, DU-145, and BEAS-2B were cultured in RPMI 1640 medium (Gibco, Thermo Fisher Scientific, Gaithersburg, MD, USA) supplemented with 10% fetal bovine serum (FBS; Gibco), 100 units/mL penicillin, and […] streptomycin (Gibco). HT-29 cell line was grown in McCoy’s 5A (Gibco), 10% FBS, 100 units/mL penicillin, and 100 μg/mL streptomycin. Cells were maintained at 37 °C and 5% CO2. The culture medium was changed every three days.
(§2) The cell viability of each compound was measured by MTT colorimetric assay. Each compound was dissolved in DMSO at a concentration of 0.01 M. Each compound was tested at two different concentrations (10 and 50 µM) in MDA-MB-231 (breast), HTB-54 (lung), DU-145 (prostate), and HT-29 (colon) human cancer cell lines. Serial dilutions were prepared with supplemented culture medium. […] IC50 and selectivity indexes (SI) were determined.
(§3) Briefly, 1 × 10^4 tumor cells per well were grown in 96-well plates for 24 h. Then, these cells were incubated for 48 h with either DMSO (control) or a different concentration of each of the tested compounds. The cell viability was determined by adding 20 μL of MTT two hours and a half before the termination point. After this time, the culture medium was removed. The resulting formazan crystals were dissolved in 50 μL of DMSO, and the absorbance was measured at 570 nm. Results are expressed as % cell growth. The data were obtained from at least three independent experiments performed in quadruplicate.

SMILES	activity at 10 µM [%]
C#CCNC(=[Se])NC(=O)c1ccc2c(c1)OCO2 [Compound 8.III, N-(prop-2-in-1-ylcarbamoselenoyl)benzo[d][1,3]dioxole-5-carboxamide]	61.9 ± 13.5

same assay, conditions: Homo sapiens, MDA-MB-231, 48 h, read-out: Cell growth %, MDA-MB-231, 50 µM, 48 h, MTT

SMILES	activity at 50 µM [%]
C#CCNC(=[Se])NC(=O)c1ccc2c(c1)OCO2 [Compound 8.III, N-(prop-2-in-1-ylcarbamoselenoyl)benzo[d][1,3]dioxole-5-carboxamide]	19.1 ± 9.6

system: non-malignant BEAS-2B lung cell line; test: MTT cell viability assay, BEAS-2B; format: cell-based; conditions: Homo sapiens, normal lung, 48 h
Procedure: as §1, §2, §3

SMILES	IC50 [µM]
C#CCNC(=[Se])NC(=O)c1ccc2c(c1)OCO2 [Compound 8.III, N-(prop-2-in-1-ylcarbamoselenoyl)benzo[d][1,3]dioxole-5-carboxamide]	> 100

system: DU-145 (prostate) cancer cell line; test: MTT cell viability assay, DU-145; format: cell-based, human; conditions: Homo sapiens, DU-145, 48 h, read-out: Cell growth %, DU-145, 10 µM, 48 h, MTT
Procedure: as §1, §2, §3

SMILES	activity at 10 µM [%]
C#CCNC(=[Se])NC(=O)c1ccc2c(c1)OCO2 [Compound 8.III, N-(prop-2-in-1-ylcarbamoselenoyl)benzo[d][1,3]dioxole-5-carboxamide]	63 ± 4.8

same assay, conditions: Homo sapiens, DU-145, 48 h, read-out: Cell growth %, DU-145, 50 µM, 48 h, MTT

SMILES	activity at 50 µM [%]
C#CCNC(=[Se])NC(=O)c1ccc2c(c1)OCO2 [Compound 8.III, N-(prop-2-in-1-ylcarbamoselenoyl)benzo[d][1,3]dioxole-5-carboxamide]	12.3 ± 7.8

system: HTB-54 (lung) cancer cell line; test: MTT cell viability assay, HTB-54; format: cell-based, human; conditions: Homo sapiens, HTB-54, 48 h, read-out: Cell growth %, HTB-54, 10 µM, 48 h, MTT
Procedure: as §1, §2, §3

SMILES	activity at 10 µM [%]
C#CCNC(=[Se])NC(=O)c1ccc2c(c1)OCO2 [Compound 8.III, N-(prop-2-in-1-ylcarbamoselenoyl)benzo[d][1,3]dioxole-5-carboxamide]	34.5 ± 9.1

same assay, conditions: Homo sapiens, HTB-54, 48 h, read-out: Cell growth %, HTB-54, 50 µM, 48 h, MTT

SMILES	activity at 50 µM [%]
C#CCNC(=[Se])NC(=O)c1ccc2c(c1)OCO2 [Compound 8.III, N-(prop-2-in-1-ylcarbamoselenoyl)benzo[d][1,3]dioxole-5-carboxamide]	31.6 ± 6.1

same assay, conditions: Homo sapiens, HTB-54, 48 h, read-out: IC50 HTB-54, Lung, MTT, 48 h

SMILES	IC50 [µM]
C#CCNC(=[Se])NC(=O)c1ccc2c(c1)OCO2 [Compound 8.III, N-(prop-2-in-1-ylcarbamoselenoyl)benzo[d][1,3]dioxole-5-carboxamide]	21.7 ± 4.1

same assay, conditions: IC50 (BEAS-2B)/IC50 (HTB-54)

SMILES	SI
C#CCNC(=[Se])NC(=O)c1ccc2c(c1)OCO2 [Compound 8.III, N-(prop-2-in-1-ylcarbamoselenoyl)benzo[d][1,3]dioxole-5-carboxamide]	>4.6

system: not listed separately; test: DPPH radical scavenging assay; format: biochemical; conditions: 0.003 mg/mL, 0 min
Procedure: Different methods are available to quantify the antioxidant capacity of natural or novel molecules. Notable among these are the ABTS^•+ and DPPH^• methods, which measure the quenching efficiency in vitro for known concentrations of preformed radicals. In this work, the DPPH^• colorimetric assay was carried out. Measurements were recorded on a BioTeck PowerWave XS spectrophotometer (BioTeck Instruments, Winooski, VT, USA) and data were collected using KCJunior v.1.41. software (BioTeck Instruments, Winooski, VT, USA). Compounds with potent activity were selected to further determine their protective effect against ROS-induced cell death caused by H2O2.
DPPH colorimetric assay was performed to determine the in vitro radical scavenging activity of the acylselenourea derivatives. DPPH assay was performed as described by Svinyarov. For each acylselenourea, a stock solution of 1 mg/mL in dimethyl sulfoxide (DMSO) was made, and these solutions were used to prepare the different concentrations employed in the assay. The compounds were tested at two different concentrations (0.003 and 0.03 mg/mL). Intermediate solutions were prepared in methanol and a volume of 100 µL of each was added to each well of the plate. Then, 100 µL of DPPH^• (previously prepared at a concentration of 0.04 mg/mL in methanol and preserved in the dark) was added to the previous methanolic acylselenourea solutions. The discoloration of the purple radical to the yellow reduced form was followed at 517 nm at different time points (0, 5, 15, 30, 60, 90, and 120 min). Ascorbic acid and trolox were used as positive controls. All measurements were carried out in triplicate. Results are expressed as the percentage of the radicals scavenged, calculated using the following formula: (1) % DPPH radical scavenging=Acontrol - Asample/Acontrol × 100 where Acontrol refers to the absorbance of the negative control and Asample refers to the absorbance of the tested compounds. Results are expressed as percentage of DPPH radical scavenging ± SD.

SMILES	inhibition [%]
C#CCNC(=[Se])NC(=O)c1ccc2c(c1)OCO2 [Compound 8.III, N-(prop-2-in-1-ylcarbamoselenoyl)benzo[d][1,3]dioxole-5-carboxamide]	1.1 ± 2.3

same assay, conditions: 0.003 mg/mL, 5 min

SMILES	inhibition [%]
C#CCNC(=[Se])NC(=O)c1ccc2c(c1)OCO2 [Compound 8.III, N-(prop-2-in-1-ylcarbamoselenoyl)benzo[d][1,3]dioxole-5-carboxamide]	2.4 ± 2.2

same assay, conditions: 0.003 mg/mL, 15 min

SMILES	inhibition [%]
C#CCNC(=[Se])NC(=O)c1ccc2c(c1)OCO2 [Compound 8.III, N-(prop-2-in-1-ylcarbamoselenoyl)benzo[d][1,3]dioxole-5-carboxamide]	4.4 ± 2

same assay, conditions: 0.003 mg/mL, 30 min

SMILES	inhibition [%]
C#CCNC(=[Se])NC(=O)c1ccc2c(c1)OCO2 [Compound 8.III, N-(prop-2-in-1-ylcarbamoselenoyl)benzo[d][1,3]dioxole-5-carboxamide]	6.2 ± 1.9

same assay, conditions: 0.003 mg/mL, 60 min

SMILES	inhibition [%]
C#CCNC(=[Se])NC(=O)c1ccc2c(c1)OCO2 [Compound 8.III, N-(prop-2-in-1-ylcarbamoselenoyl)benzo[d][1,3]dioxole-5-carboxamide]	8.3 ± 1.8

same assay, conditions: 0.003 mg/mL, 90 min

SMILES	inhibition [%]
C#CCNC(=[Se])NC(=O)c1ccc2c(c1)OCO2 [Compound 8.III, N-(prop-2-in-1-ylcarbamoselenoyl)benzo[d][1,3]dioxole-5-carboxamide]	9.2 ± 1.8

same assay, conditions: 0.003 mg/mL, 120 min

SMILES	inhibition [%]
C#CCNC(=[Se])NC(=O)c1ccc2c(c1)OCO2 [Compound 8.III, N-(prop-2-in-1-ylcarbamoselenoyl)benzo[d][1,3]dioxole-5-carboxamide]	9.7 ± 1.8

same assay, conditions: 0.03 mg/mL, 0 min

SMILES	inhibition [%]
C#CCNC(=[Se])NC(=O)c1ccc2c(c1)OCO2 [Compound 8.III, N-(prop-2-in-1-ylcarbamoselenoyl)benzo[d][1,3]dioxole-5-carboxamide]	6.4 ± 2.5

same assay, conditions: 0.03 mg/mL, 5 min

SMILES	inhibition [%]
C#CCNC(=[Se])NC(=O)c1ccc2c(c1)OCO2 [Compound 8.III, N-(prop-2-in-1-ylcarbamoselenoyl)benzo[d][1,3]dioxole-5-carboxamide]	17.9 ± 0.9

same assay, conditions: 0.03 mg/mL, 15 min

SMILES	inhibition [%]
C#CCNC(=[Se])NC(=O)c1ccc2c(c1)OCO2 [Compound 8.III, N-(prop-2-in-1-ylcarbamoselenoyl)benzo[d][1,3]dioxole-5-carboxamide]	32.8 ± 0.9

same assay, conditions: 0.03 mg/mL, 30 min

SMILES	inhibition [%]
C#CCNC(=[Se])NC(=O)c1ccc2c(c1)OCO2 [Compound 8.III, N-(prop-2-in-1-ylcarbamoselenoyl)benzo[d][1,3]dioxole-5-carboxamide]	45.2 ± 2

same assay, conditions: 0.03 mg/mL, 60 min

SMILES	inhibition [%]
C#CCNC(=[Se])NC(=O)c1ccc2c(c1)OCO2 [Compound 8.III, N-(prop-2-in-1-ylcarbamoselenoyl)benzo[d][1,3]dioxole-5-carboxamide]	59.7 ± 3.8

same assay, conditions: 0.03 mg/mL, 120 min

SMILES	inhibition [%]
C#CCNC(=[Se])NC(=O)c1ccc2c(c1)OCO2 [Compound 8.III, N-(prop-2-in-1-ylcarbamoselenoyl)benzo[d][1,3]dioxole-5-carboxamide]	72.5 ± 8.1

same assay, conditions: acylselenourea analogs, 0.03 mg/mL, 90 min

SMILES	DPPH Inhibitory% [%]
C#CCNC(=[Se])NC(=O)c1ccc2c(c1)OCO2 [Compound 8.III, N-(prop-2-in-1-ylcarbamoselenoyl)benzo[d][1,3]dioxole-5-carboxamide]	62.4 ± 3.1

system: HT-29 (colon) cancer cell line; test: MTT cell viability assay, HT-29; format: cell-based; conditions: Homo sapiens, HT-29, 48 h, HT-29, 10 µM, read-out: Cell growth %
Procedure: as §1, §2, §3

SMILES	activity at 10 µM [%]
C#CCNC(=[Se])NC(=O)c1ccc2c(c1)OCO2 [Compound 8.III, N-(prop-2-in-1-ylcarbamoselenoyl)benzo[d][1,3]dioxole-5-carboxamide]	40.3 ± 8.3

same assay, conditions: Homo sapiens, HT-29, 48 h, HT-29, 50 µM, read-out: Cell growth %

SMILES	activity at 50 µM [%]
C#CCNC(=[Se])NC(=O)c1ccc2c(c1)OCO2 [Compound 8.III, N-(prop-2-in-1-ylcarbamoselenoyl)benzo[d][1,3]dioxole-5-carboxamide]	18.1 ± 5.3
